# Literature values in patent US6949260B2, “Method for treatment of inflammation and pain in mammals” (Metagenics, Inc., priority 2000, dated 2005).
# Legend:
# human platelet = settings: induced by arachidonic acid, adrenaline and collagen
# [1] = test system: thromboxane B2 production; settings: in vitro
compound,measurement,setting,value
COc1cc(/C=C/C(=O)CC(=O)/C=C/c2ccc(O)c(OC)c2)ccc1O [Curcumin],inhibition of human platelet aggregation,human platelet,inhibit human platelet aggregation
same,thromboxane B2 production from arachidonic acid,[1],inhibits thromboxane B2 production
